Source: US20230220047A1, “PEPTIDES FOR TREATMENT OF SEPSIS AND CANCER” (NORWEGIAN UNIVERSITY OF SCIENCE AND TECHNOLOGY (NTNU), priority 2020, published 2023)
Entries after “also recorded” stand apart in the source; their conditions may differ.

Columns and labels:
[1] = test system: RPMI 8226 multiple myeloma cells; test: CellTiter-Glo cell viability assay, RPMI 8226; type: cell-based, human; details: RPMI 8226, 10 μM, 48 h
Description: Minor effects on the proliferation of the IH-1 and RPMI 8226 cell lines are seen. Cells were seeded at the level shown (left-hand bar of each set) then incubated in medium containing water, 10 μM penetratin or 10 μM P7-A4-Pen for 48 hr (except for INA-6 cells, which were incubated with 12.5 μM penetratin or 12.5 μM P7-A4-Pen). The number of viable cells was detected based on quantitation of ATP by luminescent signal in correlation to a standard curve prepared for each cell line. Results are based on 3-5 biological replicates for each condition, error bars show standard deviation of mean.
Multiple myeloma cells JJN-3 (DSMZ (Germany) no. ACC 541), ANBL-6 (Cellosaurus accession number CVCL_5425, obtained from Dr Diane Jelinek, Mayo Clinic, Rochester, Minn.), INA-6 (Cellosaurus accession number CVCL_5209, obtained from Dr M. Gramatzki, University of Erlangen-Nurnberg, Erlangen, Germany), RPMI-8226 (ATCC CCL-155), and IH-1 (Cellosaurus accession number CVCL_WZ44, established from the pleural effusion of a myeloma patient by Myeloma research group, IKOM, NTNU, Trondheim, Norway) were grown in RPMI-1640 (Sigma-Aldrich Norway, Oslo, Norway) supplemented with 100 nM penicillin/streptomycin and 10% FCS, and for ANBL-6, IH-1 and INA-6 cells 2 ng/ml recombinant IL-6 (Gibco, Thermo Fisher Scientific, Waltham, Mass., USA). […]

TLR4 = test: Western blot of LPS signalling in THP-1 cells and primary human monocytes; type: cell-based
Description: Protein pellets were dissolved by heating protein pellets for 10 min at 95° C. in buffer containing 4 M urea, 1 SDS (Sigma) and NuPAGE® LDS Sample Buffer (4×) (Thermo Fisher Scientific). Otherwise, lysates were made using 1× RIPA lysis buffer (150 mM NaCl, 50 mM TrisHCl (pH 7.5), 1% Triton X100, 5 mM EDTA, protease inhibitors, phosphatase inhibitors). For Western blot analysis we used pre-cast protein gels NuPAGE™ Novex™ and iBlot Transfer Stacks iBlot Gel Transfer Device (Thermo Fisher Scientific). Proteins were transferred to the membrane by dry-blotting using iBlot® 2 NC Regular/Mini Stacks (Life Technologies) in the iBlot 2 Dry Blotting System (Life Technologies). After secondary antibody incubation, membranes were washed and incubated with HRP substrate solution (SuperSignal™ West Femto Maximum Sensitivity Substrate (Thermo Fisher Scientific)). Images were taken using Odyssey® Fc (LI-CORE). Quantification graphs were generated by the analysis of signal intensities for protein bands (protein of interest and endogenous loading control—β-tubulin from the same membrane) using Odyssey software (LI-CORE). Data were normalised to the expression levels of β-tubulin and presented as a relative fold change to the control sample.
Further, we tested the effect of P7-Pen on phosphorylation of p38 MAPK, IκBα degradation and modification of IRAK1 in human macrophages (THP-1 cells) and primary human monocytes. P7-Pen inhibited LPS-mediated phosphorylation of p38 MAPK (FIG. 24A) and inhibited IRAK1 ubiquitination/phosphorylation (visualised as band shift to higher molecular weight) in primary monocytes (FIG. 24B).

human IL-1 receptor = test: HEK-Blue IL-1R cells stimulated with human recombinant IL-1β; type: cell-based
From the text: TLR2 and 4, and the endosomal TLRs 7-9, use the Myddosome signaling complex to activate transcription of pro-inflammatory cytokines, and endosomal TLRs also activate expression of type I IFNs via the same signaling complex. There are also several IL-1-like receptors including the IL-1 receptor (IL-1R) itself, which is characterized by extracellular immunoglobulin-like domains and intracellular Toll/Interleukin-1R (TIR) domains. These receptors also use the Myddosome complex to initiate downstream signaling. Therefore, we decided to test if signaling downstream of human IL-1R could be altered by the P7-Pen peptide. We used HEK-Blu IL-1R cells (Invivogen) that endogenously express the human IL-1 receptor. HEK-Blue IL-1R cells express a SEAP reporter gene under the control of the IFNβ minimal promoter fused to five NF-κB and five AP-1 binding sites. Binding of IL-1β to its receptor IL-1R on the surface of HEK-Blue IL-1R cells triggers a signaling cascade leading to the activation NF-κB and the subsequent production of SEAP.
In the assay, HEK-Blue IL-1R cells were pre-treated with control peptide or P7-Pen and stimulated with human recombinant II-1β (hII-1β) for up to 3 hr or for 24 hr. Stimulation of cells by TLR2 and 4 as well as by IL-1β would result in fast posttranslational modifications of IRAK1 in the Myddosome, and in phosphorylation of p38 MAPK. […]

Ac-ITVAASVTLTGRQIKIWFQNRRMKWKK-NH2 [Peptide P7-A4-Pen]
cell proliferation [1]: Minor effects; also recorded: inhibited cell proliferation

Ac-ITVYASVTLTGRQIKIWFQNRRMKWKK-NH2 [Peptide P7-Pen]
LPS-mediated phosphorylation of p38 MAPK (TLR4; THP-1 cells): inhibited
IRAK1 ubiquitination/phosphorylation (TLR4; primary monocytes, LPS): inhibited
IL-1β-induced IRAK1 posttranslational modifications or p-p38 MAPK levels (human IL-1 receptor; data not shown): no effect
IL-1β-mediated secretion of SEAP (human IL-1 receptor; versus cells pre-treated with control peptide Pen (data not shown)): comparable
